This is an account of results in patent publication US7528132B2, “Kinase inhibitors” (Schering Corporation, priority 2005, dated 2009).

Where two headings read alike, the source gives them in different places.

For the test, the target named is T1, Akt1 (Homo sapiens, UniProt P31749).
T1 construct: made in house; host or cells: Sf9 insect cells (baculovirus, pBlueBacHis2B)
Briefly: Akt1 kinase assay (33P phosphorylation of biotinylated peptide, Flash plates). In kind it is biochemical. The source says:
The assay described below measures the phosphorylation of a biotinylated peptide by active recombinant Akt1 and other kinase isoforms. The biotinylated peptide contains a consensus sequence derived from Akt substrate Gsk3 (Glycogen synthase kinase 3). The ^33P-labeled peptide substrate was captured by streptavidin-coated Flash plates.
Active recombinant Akt1 was expressed in Sf9 insect cells and purified as described by Kumar et al., Biochim. Biophys. Acta. Jun. 15, 2001, 1526(3), 257-268. Biotinylated peptide of the sequence Bio-ahx-RPRAASF was purchased from Syn Pep (Dublin, Calif., USA).
Cloning and Expression of Human Akt1 Sf9 Cells
Human Akt1 cDNA was amplified from a marathon-ready human lung cDNA library (Clonetech) using nested oligo primers as described below. The first round of amplification was carried out using the following primers; Akt1F1 ([…]) and Akt1R1 (TCCATC […]) and for the second round amplification, the primers of the following sequence were used; Akt1F2 (GGATCCTCGG […]) and AKT1R2 (GGTACCATCGTC […]). The PCR product was subcloned into pCRScript plasmid as a BamHI/KpnI fragment and the sequence of the cDNA was confirmed by DNA sequencing. This plasmid was used as a template for reamplification of Akt1 using appropriate primers for subcloning into pBlueBaHis2B into BamH1/EcoRI sites to generate an in frame fusion to (His)6 tag and an anti-Xpress antibody epitope tag at the N-terminus. This construct was sequenced to verify the junction sequences and used for generating a recombinant baculovirus. Growth of the recombinant virus, amplification and determination of viral titer were carried out according to the instructions from the manufacturer (InVitrogen, CA).
Purification of Akt1 from Sf9 Cells
Viral stocks were used to infect large scale Sf9 cells at a multiplicity of infection (MOI) of 2.5. Cells were maintained at 27° C. for 60 h and okadaic acid was added to the cultures to a concentration of 50 nM. Cells were harvested 4 h hours later by centrifugation at 1200 rpm for 30 min followed by freezing at −80° C. until further use. All purification steps were carried out at 4° C. Whole cell pellets were suspended in buffer A (20 mM sodium phosphate buffer pH 7.8, 500 mM NaCl, 1 mM sodium vanadate, 5 mM sodium fluoride, 40 mM β-glycerophosphate, 10 mM imidazole and protease inhibitor cocktail) and lysed using a microfluidizer. The cell extract was centrifuged at 16,000×g for 10 min to remove the debris and directly loaded onto Ni-NTA Superflow resin using a FPLC pump operated at 1 ml/min. The column was washed once with buffer A, once with wash buffer B (20 mM sodium phosphate pH 6.0, 1 mM sodium vanadate, 5 mM sodium fluoride and protease cocktail) and once with wash buffer B containing 0.05% Tween-20 followed by washing with buffer A until OD260 returned to basal level. Proteins were eluted with buffer A containing 200 mM imidazole. Fractions were analyzed by electrophoresis on 10% denaturing polyacrylamide gels and fractions containing 85% pure protein band at 60 KDa were pooled and dialyzed against buffer C (20 mM Tris-HCl pH 7.5, 0.5 mM EDTA,-2 mM DTT, 145 mM NaCl, 0.1 mM sodium vanadate, 5 mM sodium fluoride, 10 mM, β-glycerophosphate and 20% glycerol). Purified protein was stored as aliquots at −80° C. Protein concentrations were determined using BCA protein assay reagent A (Catalog #23228). To examine the identity of the proteins, 2 μg of purified protein was electrophoresed on SDS-polyacrylamide gels and stained with coomassie blue dye or transferred to nitrocellulose membrane and probed with anti-Akt and anti-phospho-specific Akt antibodies using enhanced chemiluminescence (ECL) reagent according to the protocol described by the manufacturer (Amersham).
The kinase assay was performed in 96 well plates at room temperature. Assay solutions and plates were preincubated at room temperature for 5 min. […]

[1] abbreviates: read-out: IC50 rating (AKT1 inhibition).
Where [2] appears, read: read-out: IC50 (AKT1 inhibition).

T1 sequence (P31749 whole entry): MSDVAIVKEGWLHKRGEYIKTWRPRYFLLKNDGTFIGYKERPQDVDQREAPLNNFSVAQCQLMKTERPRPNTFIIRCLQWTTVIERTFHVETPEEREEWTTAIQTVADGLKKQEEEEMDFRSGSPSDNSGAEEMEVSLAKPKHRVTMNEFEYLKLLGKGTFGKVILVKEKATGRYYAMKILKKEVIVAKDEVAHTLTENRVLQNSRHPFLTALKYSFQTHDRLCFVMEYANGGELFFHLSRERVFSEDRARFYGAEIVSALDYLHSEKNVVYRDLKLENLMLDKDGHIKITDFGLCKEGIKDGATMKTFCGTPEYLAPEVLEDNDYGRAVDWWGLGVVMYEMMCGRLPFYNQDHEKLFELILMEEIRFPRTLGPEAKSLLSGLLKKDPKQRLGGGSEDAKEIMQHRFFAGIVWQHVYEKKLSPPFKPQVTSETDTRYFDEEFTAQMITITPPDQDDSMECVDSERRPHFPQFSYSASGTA

For the compound `Cc1n[nH]c2ccc(-c3nncc(N4CCNCC4)n3)cc12` [Compound 46, 3-(3-methylindazol-5-yl)-5-(piperazin-1-yl)-[1,2,4]triazine], the IC50 (usually the concentration at which inhibition is half-maximal) under setting [1] was in the range of 100 to 1000 nM.
The same measure, in the same setting: with `Cc1n[nH]c2ccc(-c3nncc(N4CCNC(Cc5cccc(F)c5)C4)n3)cc12` (stereo not drawn) [Compound 47, 5-[3-(3-fluorobenzyl)piperazin-1-yl]-3-(3-methylindazol-5-yl)-[1,2,4]triazine] the figure was under 100 nM; with `Cc1n[nH]c2ccc(-c3nncc(N4CCNC(Cc5ccccc5F)C4)n3)cc12` (stereo not drawn) [Compound 48, 5-[3-(2-fluorobenzyl)piperazin-1-yl]-3-(3-methylindazol-5-yl)-[1,2,4]triazine], under 100 nM; with `c1ccc(CNc2nnc(-c3ccc4[nH]nc(-c5ccccc5)c4c3)nc2N2CCNCC2)cc1` [Compound 53, 6-Benzylamino-3-(3-phenylindazol-5-yl)-5-(piperazin-1-yl)-[1,2,4]triazine], over 1000 nM.
The same measure, in the same setting: the result for `Cc1n[nH]c2ccc(-c3nncc(N4CCNC(Cc5ccccc5)(Cc5ccccc5)C4)n3)cc12` [Compound 54, 5-(3,3-dibenzylpiperazin-1-yl)-3-(3-methylindazol-5-yl)-[1,2,4]triazine] reads 100 to 1000 nM; that for `c1ccc(C[C@H]2CN(c3cnnc(-c4ccc5[nH]ncc5c4)n3)CCN2)cc1` [Compound 55, 5-[(S)-3-benzylpiperazin-1-yl]-3-indazol-5-yl-[1,2,4]triazine], under 100 nM.
With `Clc1n[nH]c2ccc(-c3nncc(N4CCN[C@@H](Cc5ccccc5)C4)n3)cc12` [Compound 56, 5-[(S)-3-benzylpiperazin-1-yl]-3-(3-chloroindazol-5-yl)-[1,2,4]triazine], the half-maximal inhibitory concentration (IC50) was 5.7 nM under setting [2] and under 100 nM under setting [1].
For `Cc1n[nH]c2ccc(-c3nncc(N4CCNC(Cc5cccnc5)C4)n3)cc12` (stereo not drawn) [Compound 57, 3-(3-Methylindazol-5-yl)-5-[3-(pyridin-3-ylmethyl)piperazin-1-yl]-[1,2,4]triazine], under setting [1], the IC50 was 100 to 1000 nM.
Consider `Cc1n[nH]c2ccc(-c3nncc(N4CCNC(Cc5ccccn5)C4)n3)cc12` (stereo not drawn) [Compound 58, 3-(3-methylindazol-5-yl)-5-[3-(pyridin-2-ylmethyl)piperazin-1-yl]-[1,2,4]triazine], for which, under setting [1], the IC50 was over 1000 nM.
Consider `Cc1n[nH]c2ccc(-c3nncc(N4CCCC(Cc5ccccc5)C4)n3)cc12` (stereo not drawn) [Compound 59, 5-(3-benzylpiperidin-1-yl)-3-(3-methylindazol-5-yl)-[1,2,4]triazine], for which the concentration for half-maximal inhibition (IC50) under setting [1] lay in the range of 100 to 1000 nM.
On to `Cc1n[nH]c2ccc(-c3nncc(N4CCN(CCO)[C@@H](Cc5ccccc5)C4)n3)cc12` [Compound 60, 5-[(S)-3-benzyl-4-hydroxyethyl-piperazin-1-yl]-3-(3-methylindazol-5-yl)-[1,2,4]triazine], for which the IC50 under setting [1] was 100 to 1000 nM.
Same read-out and setting: with `CC(C)C[C@H]1CN(c2cnnc(-c3ccc4[nH]ncc4c3)n2)CCN1` [Compound 61, 3-indazol-5-yl-5-[(S)-3-isobutylpiperazin-1-yl]-[1,2,4]triazine] the figure was under 100 nM.
Still for that read-out and setting: the result for `CCOC(=O)C1(Cc2ccccc2)CCCN(c2cnnc(-c3ccc4[nH]nc(C)c4c3)n2)C1` (stereo not drawn) [Compound 62, 5-(3-benzyl-3-ethoxycarbonylpiperidin-1-yl)-3-(3-methylindazol-5-yl)-[1,2,4]triazine] reads 100 to 1000 nM.
On the same count and under the same terms, with `Cc1n[nH]c2ccc(-c3nncc(N4CCCC(CO)(Cc5ccccc5)C4)n3)cc12` (stereo not drawn) [Compound 63] the figure was 100 to 1000 nM.
Regarding `CC(C)C[C@H]1CN(c2cnnc(-c3ccc4[nH]nc(Cl)c4c3)n2)CCN1` [Compound 64, 3-(3-chloroindazol-5-yl)-5-[(S)-3-isobutylpiperazin-1-yl]-[1,2,4]triazine], the IC50 reads like this: under setting [2], 6.1 nM; under setting [1], under 100 nM.
`Cc1n[nH]c2ccc(-c3nncc(N4CCCC(Cc5ccccc5)(C(=O)O)C4)n3)cc12` (stereo not drawn) [Compound 65]: under setting [1], the IC50 is over 1000 nM.
The same measure, in the same setting: the result for `COC(=O)C1(Cc2ccccc2)CCCN(c2cnnc(-c3ccc4[nH]nc(C)c4c3)n2)C1` (stereo not drawn) [Compound 66] reads over 1000 nM; that for `Nc1n[nH]c2ccc(-c3nncc(N4CCN[C@@H](Cc5ccccc5)C4)n3)cc12` [Compound 67, 3-(3-aminoindazol-5-yl)-5-[(S)-3-benzylpiperazin-1-yl]-[1,2,4]triazine], over 1000 nM; that for `Cc1n[nH]c2ccc(-c3nncc(N4CCNC(Cc5ccncc5)C4)n3)cc12` (stereo not drawn) [Compound 68, 3-(3-methylindazol-5-yl)-5-[3-(pyridin-4-ylmethyl)piperazin-1-yl]-[1,2,4]triazine], 100 to 1000 nM.
Same read-out and setting: with `Cc1n[nH]c2ccc(-c3nncc(N4CCC(Cc5ccccc5)C4)n3)cc12` (stereo not drawn) [Compound 69, 3-(3-methylindazol-5-yl)-5-(3-benzylpyrrolidin-1-yl)-[1,2,4]triazine] the figure was 100 to 1000 nM; with `c1ccc(C[C@H]2CN(c3cnnc(-c4ccc5[nH]nc(-c6ccccc6)c5c4)n3)CCN2)cc1` [Compound 70, 5-[(S)-3-benzylpiperazin-1-yl]-3-(3-phenylindazol-5-yl)-[1,2,4]triazine], over 1000 nM; with `c1ccc(-c2n[nH]c3ccc(-c4nncc(N5CCNCC5)n4)cc23)cc1` [Compound 71, 3-(3-phenylindazol-5-yl)-5-piperazin-1-yl-[1,2,4]triazine], 100 to 1000 nM.
The same measure, in the same setting: the result for `CC(C)C[C@H]1CN(c2cnnc(-c3ccc4[nH]nc(-c5ccccc5)c4c3)n2)CCN1` [Compound 72, 5-[(S)-3-isobutylpiperazin-1-yl]-3-(3-phenylindazol-5-yl)-[1,2,4]triazine] reads over 1000 nM; that for `Cc1n[nH]c2ccc(-c3nncc(N4CCN[C@@H](C(C)(C)C)C4)n3)cc12` [Compound 73, 3-(3-methylindazol-5-yl)-5-[(S)-3-tert-butylpiperazin-1-yl]-[1,2,4]triazine], 100 to 1000 nM; that for `Cc1ccccc1CC1CN(c2cnnc(-c3ccc4[nH]ncc4c3)n2)CCN1` (stereo not drawn) [Compound 74, 3-indazol-5-yl-5-[3-(2-methylbenzyl)piperazin-1-yl]-[1,2,4]triazine], 100 to 1000 nM.
For `c1cc2[nH]nc(C3CC3)c2cc1-c1nncc(N2CCNCC2)n1` [Compound 75, 3-(3-cyclopropylindazol-5-yl)-5-piperazin-1-yl-[1,2,4]triazine], the IC50 under setting [1] was over 1000 nM.
On the same count and under the same terms, with `CC(C)C[C@H]1CN(c2cnnc(-c3ccc4[nH]nc(C5CC5)c4c3)n2)CCN1` [Compound 76, 3-(3-cyclopropylindazol-5-yl)-5-[(S)-3-isobutylpiperazin-1-yl]-[1,2,4]triazine] the figure was 100 to 1000 nM.
On the same count and under the same terms, the result for `c1ccc(C[C@H]2CN(c3cnnc(-c4ccc5[nH]nc(C6CC6)c5c4)n3)CCN2)cc1` [Compound 77, 5-[(S)-3-benzylpiperazin-1-yl]-3-(3-cyclopropylindazol-5-yl)-[1,2,4]triazine] reads 100 to 1000 nM; that for `CCc1n[nH]c2ccc(-c3nncc(N4CCNCC4)n3)cc12` [Compound 78, 3-(3-ethylindazol-5-yl)-5-piperazin-1-yl-[1,2,4]triazine], over 1000 nM.
With `CCc1n[nH]c2ccc(-c3nncc(N4CCN[C@@H](CC(C)C)C4)n3)cc12` [Compound 79, 3-(3-ethylindazol-5-yl)-5-[(S)-3-isobutylpiperazin-1-yl]-[1,2,4]triazine], the IC50 under setting [1] lay within 100 to 1000 nM.
Same read-out and setting: with `CCc1n[nH]c2ccc(-c3nncc(N4CCN[C@@H](Cc5ccccc5)C4)n3)cc12` [Compound 80, 5-[(S)-3-benzylpiperazin-1-yl]-3-(3-ethylindazol-5-yl)-[1,2,4]triazine] the figure was under 100 nM.
